In patent publication US4317912A, “Tetracyclic indole derivatives” (Farmitalia Carlo Erba S.p.A., priority 1979, dated 1982):

What was measured:
[1] = system: spontaneously hypertensive male rats, strain MHS; test: Anti-hypertensive activity in spontaneously hypertensive rats (MHS), blood pressure and heart rate measured at the tail; type: in vivo, rat (spontaneously hypertensive; conditions: MHS rats; for Change in BP, 1st day, 1 hr after dose / Change in HR, 1st day, 1 hr after dose / Change in BP, 1st day, 5 hrs after dose / Change in HR, 1st day, 5 hrs after dose / Change in BP, 4th day, 1 hr after dose / Change in HR, 4th day, 1 hr after dose / Change in BP, 4th day, 5 hrs after dose / Change in HR, 4th day, 5 hrs after dose: mean of 4 animals
Procedure: Four spontaneously hypertensive male rats, strains MHS, weighing 250-300 g for each group were used.
The animals were treated for four consecutive days. Drugs were administered by gastric gavage, suspended in 5% arabic gum (0.2 ml/100 g body weight). Blood pressure (BP) and heart rate (HR) were measured at the tail by BP Recorder W+W. Blood pressure and heart rate were measured on the 1st and 4th day of treatment 1 hour before and 1 and 5 hours after drug administration.
*Data of LD50 from the literature. In Tables 1 and 2 are reported
the results of the study of the activity of compounds 355/1165 and
355/1166 upon the BP and HR (measured indirectly by means of a tail cuff)
of spontaneous hypertensive rats, MHS strain (4 rats each group). The
compounds were given orally, once a day for 4 consecutive days.

[2] = system: male mice; conditions: data of LD50 from the literature; cited from earlier work

## C[C@](N)(Cc1ccc(O)c(O)c1)C(=O)O [α-Methyl-DOPA, reference compound]
[1]; 30 mg/kg os
  Change in BP, 1st day, 1 hr after dose: -27 mmHg
  Change in HR, 1st day, 1 hr after dose: +33 b/min
  Change in BP, 1st day, 5 hrs after dose: -4 mmHg
  Change in HR, 1st day, 5 hrs after dose: +36 b/min
  Change in BP, 4th day, 1 hr after dose: -2 mmHg
  Change in HR, 4th day, 1 hr after dose: +50 b/min
  Change in BP, 4th day, 5 hrs after dose: 0 mmHg
  Change in HR, 4th day, 5 hrs after dose: +20 b/min
[1]; 100 mg/kg os
  Change in BP, 1st day, 1 hr after dose: -6 mmHg
  Change in HR, 1st day, 1 hr after dose: +73 b/min
  Change in BP, 1st day, 5 hrs after dose: -22 mmHg
  Change in HR, 1st day, 5 hrs after dose: +40 b/min
  Change in BP, 4th day, 1 hr after dose: -19 mmHg
  Change in HR, 4th day, 1 hr after dose: +70 b/min
  Change in BP, 4th day, 5 hrs after dose: -31 mmHg
  Change in HR, 4th day, 5 hrs after dose: +20 b/min
[1]; oral, all doses treated (Table 2)
  Effect on heart rate: no effect on heart rate
[2]
  LD50 (orientative toxicity in mice): 5300 mg/kg per os
